Structures can show the parent of a compound that is named as a salt.
System: E. coli clinical isolates
Experiment: screen of strains on agar plates (CPS ID 3 or Columbia agar)
Type: cell-based
Design: key to colour: Red, Green, Black or Purple mean strong colour; Red, Green, Black or Purple mean strong colour; Red, Green, Black or Purple mean strong colour; Red, Green, Black or Purple mean strong colour; +/− means less colour than strong; Tr means a trace of colour, less than +/−; — means no colour
Conditions: for colour: 37° C. 18 hours
From the text: In order to obtain a fuller picture of the sensitivity of the substrates, they were screened with 100 different clinical isolates of E. coli in a liquid medium containing FAC. The isolates were chosen at random from the Microbiology Department, Freeman Hospital, Newcastle Upon Tyne, UK. The effectiveness of the new substrates was compared with three other media which all contained indoxyl-β-D-glucuronides. One was a commercial medium, CPS ID 3 (bioMérieux SA, Lyon, France). […] This medium was employed as a control. Among the β-D-glucuronidase producing strains of E. coli there is a large variation in the quantity of the enzyme produced and it is almost certain that the CPS ID 3 medium has been rigorously optimised to allow good growth of all the target organisms and maximum expression of the target enzymes. Therefore, two indoxyl glucuronides, X-β-D-glucuronide CHA salt and Rose-β-D-glucuronide CHA salt were also tested in a simple agar medium to allow a direct comparison of the sensitivity of these Indoxyl glucuronides when used in a medium that has not been optimised for the growth of the target organism. The comparison of the results for Rose-β-D-glucuronide and the CPS ID 3 medium was of particular significance as the commercial medium also uses Rose-β-D-glucuronide for the detection of E. coli. For consistency, the four glucuronides were all chosen as their CHA salts. As already stated, it is not anticipated that the salt form is critical to their performance. Currently. X-β-D-glucuronide is often used as either the CHA salt or the sodium salt. Brenner and colleagues [K. P. Brenner et al, Appl. Environ. Microbiol., 59, 3534-3544, (1993)] found no difference in the performance of the CHA and sodium salt forms with their application using indoxyl-β-D-glucuronide, neither in respect of colour development nor in the recovery of E. coli.
The two indoxyl glucuronides used produce insoluble endpoints following hydrolysis, as does the CPS ID 3 medium. It was therefore necessary to test these two substrates on agar plates. In contrast, catechol-β-D-glucuronide (1) and DHN-β-D-glucuronide (2b) give much more soluble endpoints best suited to liquid media and were therefore tested in a broth medium. Each broth was prepared using proteose peptone (Oxoid, Basingstoke, UK) (2 g), NaCl (1 g) and FAC (100 mg) in DI water (180 mL). This mixture was autoclaved and cooled to room temperature before being dispensed into bijoux (100×1.8 mL). Catechol β-D-glucuronide CHA salt (1) or DHN-β-D-glucuronide CHA salt (2b) (60 mg) were each dissolved in water (20 mL) and filtered to sterilize before being aseptically dispensed into successive bijoux (0.2 mL) containing the broth solution. The broth/substrate solutions were then inoculated with bacterial suspensions made up to 0.5 McFarland standard (2 μL per bijoux). X-β-D-glucuronide CHA salt (Glycosynth Ltd, Warrington, UK) (10 mg) was dissolved in NMP (200 μL). Rose-β-D-glucuronide CHA salt (Glycosynth Ltd, Warrington, UK) (20 mg) was dissolved in NMP (200 μL). These solutions were then added to Columbia agar (Oxoid, Basingstoke, UK) (100 mL) and inoculated with bacterial suspensions made up to 0.5 McFarland standard (1 μL). The plates and broths were incubated at 37° C. for 18 hours in air.

[1] = 100 E. coli strains after 18 h incubation

`O=C(O)[C@H]1O[C@@H](Oc2c[nH]c3ccc(Br)c(Cl)c23)[C@H](O)[C@@H](O)[C@@H]1O` [X-β-D-glucuronide CHA salt, 5-bromo-4-chloro-3-indolyl β-D-glucuronide] was tested, and the “% Sensitivity” value [1] was 79%, the Negative strains [1] was 21 and the Positive strains [1] was 79. For the same molecule, the colour (E. coli 260262P) was “Green”, the colour (E. coli 260280Z) was “Green” and the colour (E. coli 260310H) was “Green”. The colour (E. coli 260313A) was “—”, the colour (E. coli 260316T) was “—” and the colour (E. coli 260327V) was “Green”. The colour (E. coli 260330Y) was “Green”, the colour (E. coli 260333P) was “—” and the colour (E. coli 260345F) was “Green”. For the same molecule, the colour (E. coli 260348K) was “Green”, the colour (E. coli 260354W) was “Green” and the colour (E. coli 260364H) was “—”. For the same molecule, the colour (E. coli 260370C) was “Green”, the colour (E. coli 260375E) was “Green” and the colour (E. coli 260390B) was “—”. For the same molecule, the colour (E. coli 260396Z) was “Green”, the colour (E. coli 260398Q) was “Green” and the colour (E. coli 260400N) was “—”. The colour (E. coli 260401Q) was “Green”, the colour (E. coli 260402H) was “Green” and the colour (E. coli 260404W) was “Green”. The colour (E. coli 260405P) was “Green”, the colour (E. coli 260406A) was “—” and the colour (E. coli 260406Y) was “Green”. The colour (E. coli 260407F) was “Green”, the colour (E. coli 260408C) was “Green” and the colour (E. coli 260411Z) was “Green”. The colour (E. coli 260412Q) was “Green”, the colour (E. coli 260414H) was “Green” and the colour (E. coli 260415Y) was “Green”. For the same molecule, the colour (E. coli 260416W) was “—”, the colour (E. coli 260417P) was “Green” and the colour (E. coli 260422Y) was “Green”. The colour (E. coli 260424P) was “Green”, the colour (E. coli 260425A) was “Green” and the colour (E. coli 260426F) was “Green”. For the same molecule, the colour (E. coli 260428T) was “Green”, the colour (E. coli 260431N) was “Green” and the colour (E. coli 260432E) was “Green”. For the same molecule, the colour (E. coli 260433H) was “Green”, the colour (E. coli 260434Y) was “Green” and the colour (E. coli 260435W) was “Green”. The colour (E. coli 260436P) was “Green”, the colour (E. coli 260437A) was “—” and the colour (E. coli 260438F) was “Green”. For the same molecule, the colour (E. coli 260439C) was “Green”, the colour (E. coli 260440S) was “Green” and the colour (E. coli 260441G) was “Green”. The colour (E. coli 260458Y) was “Green”, the colour (E. coli 260459W) was “Green” and the colour (E. coli 260463D) was “Green”. The colour (E. coli 260464G) was “Green”, the colour (E. coli 260471B) was “—” and the colour (E. coli 260478N) was “—”. For the same molecule, the colour (E. coli 260479Q) was “Green”, the colour (E. coli 260480M) was “Green” and the colour (E. coli 260481J) was “Green”. The colour (E. coli 260483R) was “—”, the colour (E. coli 260485D) was “Green” and the colour (E. coli 260486L) was “Green”. For the same molecule, the colour (E. coli 260492J) was “Green”, the colour (E. coli 260494B) was “Green” and the colour (E. coli 260495R) was “—”. For the same molecule, the colour (E. coli 260497D) was “Green”, the colour (E. coli 260502G) was “Green” and the colour (E. coli 260503Z) was “Green”. For the same molecule, the colour (E. coli 260504N) was “Green”, the colour (E. coli 260505Q) was “—” and the colour (E. coli 260506E) was “Green”. The colour (E. coli 260508Y) was “Green”, the colour (E. coli 260509W) was “Green” and the colour (E. coli 260510R) was “Green”. For the same molecule, the colour (E. coli 260511X) was “Green”, the colour (E. coli 260514G) was “—” and the colour (E. coli 260515Z) was “—”. The colour (E. coli 260521S) was “Green”, the colour (E. coli 260522Z) was “Green” and the colour (E. coli 260532S) was “Green”. For the same molecule, the colour (E. coli 260533G) was “Green”, the colour (E. coli 260536Q) was “Green” and the colour (E. coli 260537E) was “—”. For the same molecule, the colour (E. coli 260538H) was “—”, the colour (E. coli 260539Y) was “Green” and the colour (E. coli 260541R) was “Green”. The colour (E. coli 260545G) was “Green”, the colour (E. coli 260547N) was “Green” and the colour (E. coli 260548Q) was “Green”. For the same molecule, the colour (E. coli 260549E) was “Green”, the colour (E. coli 260553X) was “—” and the colour (E. coli 260554D) was “Green”. For the same molecule, the colour (E. coli 260555L) was “Green”, the colour (E. coli 260563B) was “Green” and the colour (E. coli 260564R) was “Green”. The colour (E. coli 260578D) was “—”, the colour (E. coli 2603121P) was “—” and the colour (E. coli 2604399E) was “Green”. For the same molecule, the colour (E. coli O157 non-toxigenic) was “—” and the “colour of positive colonies” value (in words) was “green colonies”.

— patent US9879303B2, “Chromogenic glucuronidase substrates and uses” (Glycosynth Limited, priority 2013, dated 2018)
